From patent US10954232B2, “Pyrazole derivative as ALK5 inhibitor and uses thereof” (HANMI PHARMACEUTICAL CO., LTD., priority 2016, dated 2021)

These molecules were tested against T1, ALK5 kinase (Homo sapiens, UniProt P36897) (assay: Activity inhibition test on ALK5 enzyme (LanthaScreen Eu binding kinase assay)). Settings: kinase tracer 178, 60 minutes at room temperature.
T1 construct: GST; purchased Thermo Fisher Scientific Solutions
T1 sequence (P36897 34-503): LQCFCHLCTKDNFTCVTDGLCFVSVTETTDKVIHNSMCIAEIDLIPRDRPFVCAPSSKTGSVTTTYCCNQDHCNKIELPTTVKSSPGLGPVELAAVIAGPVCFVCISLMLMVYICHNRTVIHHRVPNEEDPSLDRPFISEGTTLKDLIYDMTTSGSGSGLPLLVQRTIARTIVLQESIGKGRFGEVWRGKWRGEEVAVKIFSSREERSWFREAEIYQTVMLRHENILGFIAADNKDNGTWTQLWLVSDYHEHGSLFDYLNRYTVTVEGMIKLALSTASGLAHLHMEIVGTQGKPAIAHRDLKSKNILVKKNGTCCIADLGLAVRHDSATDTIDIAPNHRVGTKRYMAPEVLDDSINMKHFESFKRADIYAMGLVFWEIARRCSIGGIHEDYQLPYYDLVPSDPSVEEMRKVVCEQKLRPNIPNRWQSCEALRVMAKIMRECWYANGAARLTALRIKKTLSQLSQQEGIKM
Description: For each of the compounds obtained in Examples 1 to 227, inhibitory activity against ALK5 kinase was measured.
For this, a LanthaScreen Eu binding kinase assay method was used, and ALK5 kinase, a kinase buffer, a kinase tracer 178, and a LanthaScreen Eu-GST binding antibody were all purchased from Thermo Fisher Scientific Solutions. Each of the compounds was made into a 10 mM DMSO solution, and diluted by 1/10 to a concentration of 1 μM to 0.0001 μM with an aqueous solution containing 4% DMSO. The test was performed in 384 well plates (well polystyrene low volume round-bottomed plates). First, 5 μL of the diluted compound solution was added, then 5 μL of the kinase/antibody mixture solution was introduced thereto, and 5 μL of the tracer was introduced thereto. Herein, these were added to each well so that the final kinase concentration became 5 nM, the final Eu-GST binding antibody concentration 2 nM, and the kinase tracer 178 concentration 10 nM, and the result was reacted in a stirrer for 60 minutes at room temperature. Then a fluorescence value was measured using a fluorescence meter (molecular device) ([…], 665 nm emission filter). Herein, as for the degree of compound activity to inhibit the kinase reaction, a phosphorylate rate was calculated from 0% to 100% with respect to a control group according to the protocol included in the kit, and a 50% inhibitory concentration (IC50) value was calculated by obtaining the x-axis concentration in the region where 50% activity was inhibited.

First: 5-([1,2,4]triazolo[1,5-α]pyridin-6-yl)-N-(1-cyclopropyl sulfonyl)-1H-pyrazol-4-yl)-1-(6-methylpyridin-2-yl)-1H-pyrazole-3-carboxyamide [Example 163]
Second: 5-([1,2,4]triazolo[1,5-α]pyridin-6-yl)-N-(4-((1,1-dioxidotetrahydrothiophen-3-yl)amino)phenyl)-1-(6-methylpyridin-2-yl)-1H-pyrazole-3-carboxyamide [Example 109]
The IC50 of the first is 2.1-fold lower: 4.6 nM for the first, 9.7 nM for the second. The first is the more potent here.

`COc1ccc(NC(=O)c2cc(-c3ccc4ncsc4c3)n(-c3cccc(C)n3)n2)cc1` [Example 1, 5-(benzo[d]thiazol-6-yl)-N-(4-methoxyphenyl)-1-(6-methylpyridin-2-yl)-1H-pyrazole-3-carboxyamide] and `CCOc1ccc(NC(=O)c2cc(-c3ccc4ncsc4c3)n(-c3cccc(C)n3)n2)cc1` [Example 2, 5-(benzo[d]thiazol-6-yl)-N-(4-ethoxyphenyl)-1-(6-methylpyridin-2-yl)-1H-pyrazole-3-carboxyamide] are within 1.5-fold of each other in IC50: 5 nM for the first, 4.7 nM for the second.

First: Cc1cccc(-n2nc(C(=O)Nc3ccc(OCC4CC4)cc3)cc2-c2ccc3ncsc3c2)n1 [Example 3, 5-(benzo[d]thiazol-6-yl)-N-(4-(cyclopropylmethoxy)phenyl)-1-(6-methylpyridin-2-yl)-1H-pyrazole-3-carboxyamide]
Second: COCCOc1ccc(NC(=O)c2cc(-c3ccc4ncsc4c3)n(-c3cccc(C)n3)n2)cc1 [Example 4, 5-(benzo[d]thiazol-6-yl)-N-(4-(2-methoxyethoxy)phenyl)-1-(6-methylpyridin-2-yl)-1H-pyrazole-3-carboxyamide]
The IC50 of the first is 2.7-fold higher: 12 nM for the first, 4.4 nM for the second.

`Cc1cccc(-n2nc(C(=O)Nc3ccc(OC(F)(F)F)cc3)cc2-c2ccc3ncsc3c2)n1` [Example 5, 5-(benzo[d]thiazol-6-yl)-1-(6-methylpyridin-2-yl)-N-(4-(trifluoromethoxy)phenyl)-1H-pyrazole-3-carboxyamide] and `Cc1cccc(-n2nc(C(=O)Nc3ccc(OCc4ccccc4)cc3)cc2-c2ccc3ncsc3c2)n1` [Example 6, 5-(benzo[d]thiazol-6-yl)-N-(4-(benzyloxy)phenyl)-1-(6-methylpyridin-2-yl)-1H-pyrazole-3-carboxyamide] cannot be ordered by IC50: 10 to 100 nM for the first, 11 nM for the second.

`Cc1cccc(-n2nc(C(=O)Nc3ccc4c(c3)OCO4)cc2-c2ccc3ncsc3c2)n1` [Example 7, N-(benzo[d][1,3]dioxol-5-yl)-5-(benzo[d]thiazol-6-yl)-1-(6-methylpyridin-2-yl)-1-H-pyrazole-3-carboxyamide] and `COc1cc(NC(=O)c2cc(-c3ccc4ncsc4c3)n(-c3cccc(C)n3)n2)ccc1F` [Example 8, 5-(benzo[d]thiazol-6-yl)-N-(4-fluoro-3-methoxyphenyl)-1-(6-methylpyridin-2-yl)-1H-pyrazole-3-carboxyamide] cannot be ordered by IC50: less than 10 nM for the first, 4.7 nM for the second.

Compared with `COc1ccc(NC(=O)c2cc(-c3ccc4ncsc4c3)n(-c3cccc(C)n3)n2)c(F)c1` [Example 9, 5-(benzo[d]thiazol-6-yl)-N-(2-fluoro-4-methoxyphenyl)-1-(6-methylpyridin-2-yl)-1H-pyrazole-3-carboxyamide], `COc1ccc(NC(=O)c2cc(-c3ccc4ncsc4c3)n(-c3cccc(C)n3)n2)cc1F` [Example 10, 5-(benzo[d]thiazol-6-yl)-N-(3-fluoro-4-methoxyphenyl)-1-(6-methylpyridin-2-yl)-1H-pyrazole-3-carboxyamide] is 1.9-fold lower in IC50: 19 nM for the first, 10 nM for the second.

Going from `Cc1cccc(-n2nc(C(=O)Nc3cccc(N)c3)cc2-c2ccc3ncsc3c2)n1` [Example 11, 5-(benzo[d]thiazol-6-yl)-N-(3-aminophenyl)-1-(6-methylpyridin-2-yl)-1H-pyrazole-3-carboxyamide] to `CNc1cccc(NC(=O)c2cc(-c3ccc4ncsc4c3)n(-c3cccc(C)n3)n2)c1` [Example 12, 5-(benzo[d]thiazol-6-yl)-N-(3-(methylamino)phenyl)-1-(6-methylpyridin-2-yl)-1H-pyrazole-3-carboxyamide], the IC50 rises from 2.2 nM to 6.1 nM (2.8-fold).

`Cc1cccc(-n2nc(C(=O)Nc3ccc(N(C)C)cc3)cc2-c2ccc3ncsc3c2)n1` [Example 13, 5-(benzo[d]thiazol-6-yl)-N-(4-(dimethylamino)phenyl)-1-(6-methylpyridin-2-yl)-1H-pyrazole-3-carboxyamide] and `Cc1cccc(-n2nc(C(=O)Nc3ccc([N+](=O)[O-])cc3)cc2-c2ccc3ncsc3c2)n1` [Example 14, 5-(benzo[d]thiazol-6-yl)-1-(6-methylpyridin-2-yl)-N-(4-nitrophenyl)-1H-pyrazole-3-carboxyamide] cannot be ordered by IC50: 10 to 100 nM for the first, 17 nM for the second.

Compared with `Cc1cccc(-n2nc(C(=O)Nc3ccc(N(C)CCN(C)C)cc3)cc2-c2ccc3ncsc3c2)n1` [Example 15, 5-(benzo[d]thiazol-6-yl)-N-(4-((2-(dimethylamino)ethyl)(methyl)amino)phenyl)-1-(6-methylpyridin-2-yl)-1H-pyrazole-3-carboxyamide], `Cc1cccc(-n2nc(C(=O)Nc3ccc(N4CC[C@H](N(C)C)C4)cc3)cc2-c2ccc3ncsc3c2)n1` [Example 16, 5-(benzo[d]thiazol-6-yl)-N-(4-(3-(dimethylamino)pyrrolidin-1-yl)phenyl)-1-(6-methylpyridin-2-yl)-1H-pyrazole-3-carboxyamide] is 2.8-fold lower in IC50: 6.4 nM for the first, 2.3 nM for the second. The second is the more potent here.

`Cc1cccc(-n2nc(C(=O)Nc3ccc(N4CC5CCCNC5C4)c(Cl)c3)cc2-c2ccc3ncsc3c2)n1` (stereo not drawn) [Example 17, 5-(benzo[d]thiazol-6-yl)-N-(3-chloro-4-(octahydro-6H-pyrrolo[3,4-b]pyridin-6-yl)phenyl)-1-(6-methylpyridin-2-yl)-1H-pyrazole-3-carboxyamide] and `Cc1cccc(-n2nc(C(=O)Nc3ccccc3)cc2-c2ccc3ncsc3c2)n1` [Example 18, 5-(benzo[d]thiazol-6-yl)-1-(6-methylpyridin-2-yl)-N-phenyl-1H-pyrazole-3-carboxyamide] cannot be ordered by IC50: 14 nM for the first, 10 to 100 nM for the second.

`Cc1cccc(NC(=O)c2cc(-c3ccc4ncsc4c3)n(-c3cccc(C)n3)n2)c1` [Example 19, 5-(benzo[d]thiazol-6-yl)-N-(3-tolyl)-1-(6-methylpyridin-2-yl)-1H-pyrazole-3-carboxyamide] and `C=Cc1cccc(NC(=O)c2cc(-c3ccc4ncsc4c3)n(-c3cccc(C)n3)n2)c1` [Example 20, 5-(benzo[d]thiazol-6-yl)-1-(6-methylpyridin-2-yl)-N-(3-vinylphenyl)-1H-pyrazole-3-carboxyamide] fall in the same range of IC50: 10 to 100 nM for the first, 10 to 100 nM for the second.

`Cc1cccc(-n2nc(C(=O)Nc3cccc(C(F)(F)F)c3)cc2-c2ccc3ncsc3c2)n1` [Example 21, 5-(benzo[d]thiazol-6-yl)-N-(3-(trifluoromethyl)phenyl)-1-(6-methylpyridin-2-yl)-1H-pyrazole-3-carboxyamide] and `Cc1cccc(-n2nc(C(=O)Nc3cccc(C#N)c3)cc2-c2ccc3ncsc3c2)n1` [Example 22] cannot be ordered by IC50: roughly 100 nM for the first, 10 to 100 nM for the second.

Going from `CC(=O)c1cccc(NC(=O)c2cc(-c3ccc4ncsc4c3)n(-c3cccc(C)n3)n2)c1` [Example 23, 5-(benzo[d]thiazol-6-yl)-N-(3-acetylphenyl)-1-(6-methylpyridin-2-yl)-1H-pyrazole-3-carboxyamide] to `CCOC(=O)c1cccc(NC(=O)c2cc(-c3ccc4ncsc4c3)n(-c3cccc(C)n3)n2)c1` [Example 24, ethyl 3-(5-(benzo[d]thiazol-6-yl)-1-(6-methylpyridin-2-yl)-1H-pyrazole-3-carboxyamido)benzoate], the IC50 rises from roughly 10 nM to roughly 100 nM (10-fold). The first is the more potent here.

First: CNC(=O)c1ccc(NC(=O)c2cc(-c3ccc4ncsc4c3)n(-c3cccc(C)n3)n2)cc1 [Example 25, 5-(benzo[d]thiazol-6-yl)-N-(4-(methylcarbamoyl)phenyl)-1-(6-methylpyridin-2-yl)-1H-pyrazole-3-carboxyamide]
Second: CC(=O)Nc1ccc(NC(=O)c2cc(-c3ccc4ncsc4c3)n(-c3cccc(C)n3)n2)cc1 [Example 26, 5-(benzo[d]thiazol-6-yl)-N-(4-acetamidophenyl)-1-(6-methylpyridin-2-yl)-1H-pyrazole-3-carboxyamide]
The IC50 of the first is lower: less than 10 nM for the first, 10 to 100 nM for the second. The first is the more potent here.

`Cc1cccc(-n2nc(C(=O)Nc3ccccc3F)cc2-c2ccc3ncsc3c2)n1` [Example 27, 5-(benzo[d]thiazol-6-yl)-N-(2-fluorophenyl)-1-(6-methylpyridin-2-yl)-1H-pyrazole-3-carboxyamide] and `Cc1cccc(-n2nc(C(=O)Nc3cccc(F)c3)cc2-c2ccc3ncsc3c2)n1` [Example 28, 5-(benzo[d]thiazol-6-yl)-N-(3-fluorophenyl)-1-(6-methylpyridin-2-yl)-1H-pyrazole-3-carboxyamide] are within 1.5-fold of each other in IC50: 6.2 nM for the first, 4.5 nM for the second.
